# Earlier results, collected in patent US8591958B2, “Concentrated hydrogen peroxide disinfecting solutions” (priority 2008, dated 2013).
# Where two headings read alike, the source gives them in different places.
# System: Staphylococcus aureus
smiles,measurement,setting,value
OO [hydrogen peroxide],time required to disinfect surfaces contaminated with Staphylococcus aureus,0.1% w/w aqueous solution,about 60 minutes
same,time required to disinfect surfaces contaminated with Staphylococcus aureus,"25.8% w/w aqueous solution, same test conditions",about 20 seconds
